“And” between values parts separate entries of the source, which are not always exact repeats. Identical values can stand only once.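 Results reflect a 48-hour exposure of cells in 96-well plates to compound at five concentrations. Here, GI50 denotes the concentration required for 50% inhibition of growth. TGI: total growth inhibition.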
Columns and labels:
Test in all cases: growth of human tumour cells (NCI), 48 h
[1] = test system: CCRF-CEM leukemia
[2] = test system: HT29 colon
[3] = test system: NCI-H23 lung
[4] = test system: K-562 leukemia
[5] = test system: DU-145 prostate
[6] = test system: CAKI-1 renal
[7] = test system: SNB-75 CNS
[8] = test system: SNB-19 CNS
[9] = test system: A498 renal
[10] = test system: OVCAR-3 ovarian

Row | SMILES | GI50 [1] [nM] | GI50 [2] | TGI [2] | GI50 [3] [nM] | TGI [3] | GI50 [4] [nM] | TGI [4] | GI50 [5] [nM] | TGI [5] | GI50 [6] | TGI [6] | GI50 [7] | TGI [7] | GI50 [8] [nM] | TGI [8] | GI50 [9] | TGI [9] | GI50 [10] [nM] | TGI [10] | TGI [1] [nM]
1 | N=C(N)c1nn(C2OC(CO)C(O)C2O)c2nc[nH]c(=O)c12 (centres undefined) | 434 | 2110 nM | 11700 nM | 727 | 3630 nM | 367 | 3630 nM | 196 | 780 nM | 264 nM | 1200 nM | 1480 nM | 7270 nM | 2340 | 8710 nM | 1460 nM | 4740 nM | 836 | 2900 nM | 
2 | c1ccc2[nH]c(-c3ccc(N4CCN(c5ccc(-c6nc7ccccc7[nH]6)cc5)CC4)cc3)nc2c1 | 44600 | > 100000 nM | > 100000 nM | > 100000 | > 100000 nM | 38400 | > 100000 nM | 37500 | > 100000 nM | > 100000 nM | > 100000 nM | > 100000 nM | > 100000 nM | 10500 | > 100000 nM | 54800 nM | > 100000 nM | > 100000 | > 100000 nM | > 100000
3 | CCc1ccc(NCc2cc(OC)c(OC)c(OC)c2)cc1 |  |  | 1720 nM and 1390 nM |  | 24800 nM and 15100 nM | 111 | 26400 nM and 52400 nM |  | > 100000 nM and 19500 nM |  | > 100000 nM | 387 nM and 882 nM | > 100000 nM | 1140 | > 100000 nM | 2280 nM and 3850 nM | 20600 nM and 49000 nM | 348 | 1320 nM | > 77900
4 | CCN1C(=O)N(CC)C2C1NN=c1s/c(=C3\C(=O)N(C(C)C)c4ccccc43)c(=O)n12 (centres undefined) | 377 | 350 nM | > 100000 nM | 421 | 30500 nM | 329 | > 100000 nM | 377 | 3130 nM | 423 nM | > 54400 nM | 317 nM | 20900 nM | 440 | > 100000 nM | 239 nM | 910 nM | 294 | 841 nM | > 100000
5 | O=C(O)CSSCC(=O)O |  |  | > 100000 nM |  | > 100000 nM |  | > 100000 nM |  | > 100000 nM |  | > 100000 nM |  | > 100000 nM |  | > 100000 nM |  | > 100000 nM |  | > 100000 nM | > 100000
6 | CC[C@](C)(O)C(=O)O[C@H]1C(=O)O[C@@H]2C[C@H]3C(C)=CC(=O)[C@@H](O)[C@]3(C)[C@H]3[C@@]4(O)OC[C@]32[C@@H]1[C@@H](C)[C@H]4O | 89.7 | 321 nM and 122 nM | 10300 nM and 2270 nM | 50 | 532 nM and 136 nM | 84.1 |  |  | 2900 nM | 577 nM and 158 nM | 8800 nM and 1350 nM | 258 nM | 1020 nM and 170 nM |  | 674 nM and 223 nM | 950 nM | 3360 nM and 1150 nM | 387 | 502 nM and 1620 nM | 
7 | CN(C)CCNC(=O)c1cccn2c(=O)c3cc4ccccc4cc3nc12 | 100 | 69.1 nM |  | 165 | 1010 nM | 208 | 40800 nM | 103 | 391 nM | 71.1 nM | 593 nM | 280 nM | 1770 nM | 185 | 47700 nM | 122 nM | 667 nM | 160 | 573 nM | 32600
8 | CCCN1C(=O)/C(=c2\sc3n(c2=O)C2C(NN=3)N(CC)C(=O)N2CC)c2ccccc21 (centres undefined) | 423 | 347 nM | 12200 nM | 792 | 15800 nM | 374 | > 100000 nM | 421 | 11000 nM | 445 nM | 16100 nM | 199 nM | 790 nM | 765 | 23800 nM | 188 nM | 770 nM | 289 | 800 nM | > 100000
9 | O=C(O)CS(=O)(=O)C(c1ccccc1)c1ccccc1 |  |  | > 100000 nM |  | > 100000 nM |  | > 100000 nM |  | > 100000 nM |  | > 100000 nM |  | > 100000 nM |  | > 100000 nM |  | > 100000 nM |  | > 100000 nM | > 100000
10 | CCN(CC)CCOc1ccc(C(=C(C)c2ccc(Cl)cc2)c2ccc(OCCN(CC)CC)cc2)cc1 | 625 | 578 nM | 1270 nM | 1880 | 6410 nM | 627 | 1740 nM | 1090 | 3470 nM | 504 nM | 1020 nM | 49.9 nM | 1660 nM | 699 | 1560 nM | 1790 nM | 6120 nM | 643 | 1360 nM | 1710
11 | CC1Oc2cc3c(-c4c(O)cc(O)c5c(O)c6c(cc45)OC(C)C(C)C6=O)c(O)cc(O)c3c(O)c2C(=O)C1C (centres undefined) |  |  | 397 nM |  | 756 nM |  | 627 nM |  | 10700 nM |  | 2360 nM |  | 557 nM |  | 1160 nM |  | 784 nM |  | 816 nM | 148
12 | NC(=O)[C@H]1CCN(c2ncnc(N)c2F)C[C@@H]1N1CCC[C@@H](Nc2cc(Cl)cc(C(F)(F)F)c2)C1=O | 24500 | 5290 nM | 55100 nM | 20800 | 65800 nM | 18400 | > 100000 nM | 10800 | > 100000 nM | 6670 nM | 89700 nM | 12600 nM | 39100 nM | 25800 | > 100000 nM | 3250 nM | 18700 nM | 28500 | > 100000 nM | > 100000
13 | CC(C)(C(=O)NN)c1ccccc1 |  |  | > 100000 nM |  | > 100000 nM |  | > 100000 nM |  | > 100000 nM |  | > 100000 nM |  | > 100000 nM |  | > 100000 nM |  | > 100000 nM |  | > 100000 nM | > 100000
14 | CCN=C1C=CC(=C(c2ccc(N(C)C)cc2)c2ccc(N(C)C)cc2)c2ccccc21 | 153 | 32.6 nM | 207 nM | 30 | 211 nM | 55.7 | 2170 nM | 82.9 | 357 nM | 200 nM | 520 nM | 83.3 nM | 332 nM | 217 | 4210 nM | 160 nM | 453 nM | 30.1 | 121 nM | 3640
15 | COc1cc2c(cc1OC)-c1ccc3cc4c(cc3c1N(CCN1CCCC1)C2)OCO4 | 186 | 313 nM | 1470 nM | 447 | 2140 nM | 291 | 1650 nM | 376 | 2500 nM | 814 nM | 11500 nM | 357 nM | 5810 nM | 543 | 1850 nM | 1570 nM | 4630 nM | 854 | 2230 nM | 4360
16 | CCOC(=O)Cc1c[nH]c(=S)[nH]c1=O | > 100000 | > 100000 nM | > 100000 nM | > 100000 | > 100000 nM | > 100000 | > 100000 nM | > 100000 | > 100000 nM | > 100000 nM | > 100000 nM | > 100000 nM | > 100000 nM | > 100000 | > 100000 nM | > 100000 nM | > 100000 nM | > 100000 | > 100000 nM | > 100000
17 | Cc1ccc2[nH]c(C(=O)NN3C(=O)CSC34CCCCC4C)c(-c3ccccc3)c2c1 (centres undefined) | 17000 | 14400 nM | 36900 nM | 17000 | 33200 nM | 10800 | 42100 nM | 18200 | 44100 nM | 16100 nM | 32200 nM | 19600 nM | 38100 nM | 19200 | 42600 nM | 17600 nM | 34500 nM | 13900 | 30100 nM | 38500
18 | C[C@]12CC[C@H]3[C@@H](CCC4=CC(=O)CC[C@@H]43)[C@@H]1CC[C@@H]2OC(=O)N(CCCl)N=O | 1450 | 3700 nM | 13700 nM | 5100 | 33700 nM | 2900 | 56000 nM | 433 | 4410 nM | 510 nM | 27600 nM | 317 nM | 16400 nM | 265 | 24300 nM | 1900 nM | 5510 nM | 7830 | 21800 nM | > 35400
